Measured values reported in article PMC8279409, “Novel Mixed NOP/Opioid Receptor Peptide Agonists” (Journal of Medicinal Chemistry, 2021).
Where two headings read alike, the source gives them in different places. Where a SMILES comes first, the peptide text is derived from it. [ ]: non-standard residue; d: D form. Bip = N[C@@H](Cc1ccc(-c2ccccc2)cc1)C(=O)O; Phe(4-NH2) = Nc1ccc(C[C@H](N)C(=O)O)cc1; 1Nal = N[C@@H](Cc1cccc2ccccc12)C(=O)O; 2Nal = N[C@@H](Cc1ccc2ccccc2c1)C(=O)O; Dmt = Cc1cc(O)cc(C)c1C[C@H](N)C(=O)O

How the values were obtained:
human NOP receptor = molecular target: T1, human NOP receptor (Homo sapiens, UniProt P41146); assay: Calcium mobilization, NOP receptor; type: cell-based; details: for NOP pEC50 (CL95%) / NOP/mu CR (concentration ratio): Table 2 series; for NOP pEC50 (CL95%): CHO cells coexpressing human NOP and Gαqi5, Fluo-4 AM, 37 °C, mean of at least three experiments in duplicate, CL95% in brackets; for NOP/mu CR (concentration ratio): calcium mobilization, NOP versus mu; for Emax: percent over the baseline fluorescence, mean ± SEM of at least three experiments in duplicate, SEM
T1 construct: expressed in transfected cells; host or cells: CHO cells stably coexpressing the receptor and chimeric Gαqi5
T1 sequence (P41146 whole entry): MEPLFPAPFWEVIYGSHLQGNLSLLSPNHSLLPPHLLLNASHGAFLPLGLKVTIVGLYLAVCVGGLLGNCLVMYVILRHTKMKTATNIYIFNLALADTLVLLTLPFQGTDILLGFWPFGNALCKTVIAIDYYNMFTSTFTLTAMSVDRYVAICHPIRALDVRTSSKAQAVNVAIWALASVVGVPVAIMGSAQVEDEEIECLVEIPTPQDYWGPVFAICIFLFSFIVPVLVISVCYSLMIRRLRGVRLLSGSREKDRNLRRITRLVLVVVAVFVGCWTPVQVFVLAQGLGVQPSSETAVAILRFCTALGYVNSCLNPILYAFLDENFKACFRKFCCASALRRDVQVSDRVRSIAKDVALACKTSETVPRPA
Method: CHO cells stably coexpressing the human NOP or kappa or the mu receptor and the C-terminally modified Gαqi5 and CHO cells coexpressing the delta receptor and the GαqG66Di5 protein were generated and cultured as described previously.[45],[46] Cells were maintained in Dulbecco’s modified Eagle’s medium/nutrient mixture F-12 (DEMEM/F-12) supplemented with 10% FBS, 100 U/mL penicillin and 100 μg/mL streptomycin, 100 μg/mL hygromicin B, and 200 μg/mL G418 and cultured at 37 °C in 5% CO2 humidified air. Cells were seeded at a density of 50,000 cells/well into 96-well black, clear-bottom plates. The following day, the cells were incubated with Hanks’ balanced salt solution (HBSS) supplemented with 2.5 mM probenecid, 3 μM of the calcium-sensitive fluorescent dye Fluo-4 AM, and 0.01% pluronic acid for 30 min at 37 °C. After that time, the loading solution was aspirated and 100 μL/well of HBSS supplemented with 20 mM HEPES, 2.5 mM probenecid, and 500 μM brilliant black was added. Serial dilutions were carried out in HBSS/HEPES (20 mM) buffer (containing 0.02% BSA fraction V). After placing both plates (cell culture and master plate) into the fluorometric imaging plate reader FlexStation II (Molecular Devices, Sunnyvale, CA), fluorescence changes were measured. On-line additions were carried out in a volume of 50 μL/well. To facilitate drug diffusion into the wells, the present studies were performed at 37 °C. Maximum change in fluorescence, expressed as percent over the baseline fluorescence, was used to determine agonist response.
The pharmacological terminology adopted in this paper is consistent with IUPHAR recommendations.[59] All data are expressed as the mean ± standard error of the mean (SEM) of at least three experiments performed in duplicate. […] Concentration-response curves to agonists were fitted to the classical four-parameter logistic nonlinear regression model:
Effect = Baseline + (Emax – Baseline)/(1 + 10^(LogEC50 – Log[compound]) × Hillslope). Curve fitting was performed using PRISM 6.0 (GraphPad Software Inc., San Diego).

human mu receptor = molecular target: T2, human mu receptor (Homo sapiens, UniProt P35372); assay: Calcium mobilization, mu opioid receptor; type: cell-based; details: for mu pEC50 (CL95%): Table 2 series, CHO cells coexpressing human mu receptor and Gαqi5, Fluo-4 AM, 37 °C, mean of at least three experiments in duplicate, CL95% in brackets; for pEC50_mu: molecular formula strings CSV, repeats calcium mobilization values of Tables 1-3; for activation at 10 µM: read-out: mu effect at 10 μM (crc incomplete), Table 2 series, mean ± SEM; for activation at 10 µM / Emax: percent over the baseline fluorescence, SEM; for Emax: mean ± SEM of at least three experiments in duplicate
T2 construct: expressed in transfected cells; host or cells: CHO cells stably coexpressing the receptor and chimeric Gαqi5
T2 sequence (P35372 whole entry): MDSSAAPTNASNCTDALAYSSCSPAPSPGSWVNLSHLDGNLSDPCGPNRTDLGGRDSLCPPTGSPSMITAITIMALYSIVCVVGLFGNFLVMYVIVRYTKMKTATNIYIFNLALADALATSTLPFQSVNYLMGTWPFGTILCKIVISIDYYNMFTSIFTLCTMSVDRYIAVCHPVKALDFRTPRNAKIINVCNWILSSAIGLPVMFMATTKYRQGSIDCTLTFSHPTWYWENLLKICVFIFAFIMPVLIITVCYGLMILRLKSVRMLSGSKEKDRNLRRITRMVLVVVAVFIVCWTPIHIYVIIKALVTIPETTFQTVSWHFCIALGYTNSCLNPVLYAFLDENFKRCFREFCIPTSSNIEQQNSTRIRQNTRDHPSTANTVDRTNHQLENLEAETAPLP

[1] = read-out: NOP Emax ± S.E.M., Table 2 series
[2] = read-out: mu Emax ± S.E.M., Table 2 series
[3] = read-out: NOP Emax ± S.E.M., Table 3 series
[4] = read-out: mu Emax ± S.E.M., Table 3 series

Row | SMILES | NOP pEC50 (CL95%) (human NOP receptor) | NOP/mu CR (concentration ratio) (human NOP receptor) | Emax (human NOP receptor; [1]) | mu pEC50 (CL95%) (human mu receptor) | pEC50_mu (human mu receptor) | activation at 10 µM (human mu receptor) | Emax (human mu receptor; [2]) | Emax (human NOP receptor; [3]) | Emax (human mu receptor; [4])
1 | C[C@H](NC(=O)CNC(=O)[C@H](Cc1ccc(-c2ccccc2)cc1)NC(=O)[C@H](Cc1ccccc1)NC(=O)CNC(=O)CNC(=O)[C@@H](N)Cc1ccc(O)cc1)C(=O)N[C@@H](CCCNC(=N)N)C(=O)N[C@@H](CCCCN)C(=O)N[C@@H](CO)C(=O)N[C@@H](C)C(=O)N[C@@H](CCCNC(=N)N)C(=O)N[C@@H](CCCCN)C(N)=O [Compound 24, [Tyr^1,Bip^5]N/OFQ(1-13)-NH2] (H-YGGF[Bip]GARKSARK-NH2) | 6.93 (6.63–7.22) | 0.15 | 272 ± 29% | crc incomplete; 10 μM: 151 ± 66 | crc incomplete | 151 ± 66% |  |  | 
2 | C[C@H](NC(=O)CNC(=O)[C@H](Cc1cccc2ccccc12)NC(=O)[C@H](Cc1ccccc1)NC(=O)CNC(=O)CNC(=O)[C@@H](N)Cc1ccc(O)cc1)C(=O)N[C@@H](CCCNC(=N)N)C(=O)N[C@@H](CCCCN)C(=O)N[C@@H](CO)C(=O)N[C@@H](C)C(=O)N[C@@H](CCCNC(=N)N)C(=O)N[C@@H](CCCCN)C(N)=O [Compound 25, [Tyr^1,1Nal^5]N/OFQ(1-13)-NH2] (H-YGGF[1Nal]GARKSARK-NH2) | 7.17 (6.82–7.52) | 0.08 | 245 ± 16% | 6.08 (5.67–6.49) |  |  | 319 ± 31% |  | 
3 | C[C@H](NC(=O)CNC(=O)[C@H](Cc1ccc2ccccc2c1)NC(=O)[C@H](Cc1ccccc1)NC(=O)CNC(=O)CNC(=O)[C@@H](N)Cc1ccc(O)cc1)C(=O)N[C@@H](CCCNC(=N)N)C(=O)N[C@@H](CCCCN)C(=O)N[C@@H](CO)C(=O)N[C@@H](C)C(=O)N[C@@H](CCCNC(=N)N)C(=O)N[C@@H](CCCCN)C(N)=O [Compound 26, [Tyr^1,2Nal^5]N/OFQ(1-13)-NH2] (H-YGGF[2Nal]GARKSARK-NH2) | 6.82 (6.60–7.04) | 0.19 | 266 ± 15% | crc incomplete; 10 μM: 244 ± 10 | crc incomplete | 244 ± 10% |  |  | 
4 | C[C@H](NC(=O)CNC(=O)[C@H](Cc1ccc(N)cc1)NC(=O)[C@H](Cc1ccccc1)NC(=O)CNC(=O)CNC(=O)[C@@H](N)Cc1ccc(O)cc1)C(=O)N[C@@H](CCCNC(=N)N)C(=O)N[C@@H](CCCCN)C(=O)N[C@@H](CO)C(=O)N[C@@H](C)C(=O)N[C@@H](CCCNC(=N)N)C(=O)N[C@@H](CCCCN)C(N)=O [Compound 27, [Tyr^1,(pNH2)Phe^5]N/OFQ(1-13)-NH2] (H-YGGF[Phe(4-NH2)]GARKSARK-NH2) |  |  | 274 ± 15% |  |  |  | 329 ± 37% |  | 
5 | Cc1cc(O)cc(C)c1C[C@H](NC(=O)[C@H](Cc1ccccc1)NC(=O)CNC(=O)CNC(=O)[C@@H](N)Cc1ccc(O)cc1)C(=O)NCC(=O)N[C@@H](C)C(=O)N[C@@H](CCCNC(=N)N)C(=O)N[C@@H](CCCCN)C(=O)N[C@@H](CO)C(=O)N[C@@H](C)C(=O)N[C@@H](CCCNC(=N)N)C(=O)N[C@@H](CCCCN)C(N)=O [Compound 28, [Tyr^1,Dmt^5]N/OFQ(1-13)-NH2] (H-YGGF[Dmt]GARKSARK-NH2) |  |  | 251 ± 22% |  |  |  | 301 ± 35% |  | 
6 | Cc1cc(O)cc(C)c1C[C@H](N)C(=O)NCC(=O)NCC(=O)N[C@@H](Cc1ccccc1)C(=O)N[C@H](C(=O)NCC(=O)N[C@@H](C)C(=O)N[C@@H](CCCNC(=N)N)C(=O)N[C@@H](CCCCN)C(=O)N[C@@H](CO)C(=O)N[C@@H](C)C(=O)N[C@@H](CCCNC(=N)N)C(=O)N[C@@H](CCCCN)C(N)=O)[C@@H](C)O [Compound 29, [Dmt^1]N/OFQ(1-13)-NH2, reference compound] |  |  |  |  |  |  |  | 294 ± 22% | 311 ± 20%
7 | Cc1cc(O)cc(C)c1C[C@H](N)C(=O)NCC(=O)NCC(=O)N[C@@H](Cc1ccccc1)C(=O)N[C@@H](Cc1ccc(O)cc1)C(=O)NCC(=O)N[C@@H](C)C(=O)N[C@@H](CCCNC(=N)N)C(=O)N[C@@H](CCCCN)C(=O)N[C@@H](CO)C(=O)N[C@@H](C)C(=O)N[C@@H](CCCNC(=N)N)C(=O)N[C@@H](CCCCN)C(N)=O [Compound 30, [Dmt^1,Tyr^5]N/OFQ(1-13)-NH2] (H-[Dmt]GGFYGARKSARK-NH2) |  |  |  |  |  |  |  | 304 ± 21% | 410 ± 25%
